{"source": "ChEMBL document CHEMBL3351771", "about": "“Development of inhibitors of the 2C-methyl-D-erythritol 4-phosphate (MEP) pathway enzymes as potential anti-infective agents” (J Med Chem, 2014)", "key": {"[1]": {"assay": "Inhibition of Arabidopsis thaliana IspD"}, "[2]": {"assay": "Inhibition of Escherichia coli IspE"}, "[3]": {"assay": "Inhibition of Aquifex aeolicus IspH"}, "Escherichia coli [4]": {"test_system": "Escherichia coli", "assay": "Inhibition of Escherichia coli IspF at 500 uM"}, "Escherichia coli [5]": {"test_system": "Escherichia coli", "assay": "Inhibition of Escherichia coli IspF at 500 uM after 30 mins preincubation"}, "[6]": {"target": "T1, 1-deoxy-D-xylulose-5-phosphate synthase (Deinococcus radiodurans (strain ATCC 13939 / DSM 20539 / JCM 16871 /LMG 4051 / NBRC 15346 / NCIMB 9279 / R1 / VKM B-1422), UniProt Q9RUB5)", "T1 sequence (Q9RUB5 whole entry)": "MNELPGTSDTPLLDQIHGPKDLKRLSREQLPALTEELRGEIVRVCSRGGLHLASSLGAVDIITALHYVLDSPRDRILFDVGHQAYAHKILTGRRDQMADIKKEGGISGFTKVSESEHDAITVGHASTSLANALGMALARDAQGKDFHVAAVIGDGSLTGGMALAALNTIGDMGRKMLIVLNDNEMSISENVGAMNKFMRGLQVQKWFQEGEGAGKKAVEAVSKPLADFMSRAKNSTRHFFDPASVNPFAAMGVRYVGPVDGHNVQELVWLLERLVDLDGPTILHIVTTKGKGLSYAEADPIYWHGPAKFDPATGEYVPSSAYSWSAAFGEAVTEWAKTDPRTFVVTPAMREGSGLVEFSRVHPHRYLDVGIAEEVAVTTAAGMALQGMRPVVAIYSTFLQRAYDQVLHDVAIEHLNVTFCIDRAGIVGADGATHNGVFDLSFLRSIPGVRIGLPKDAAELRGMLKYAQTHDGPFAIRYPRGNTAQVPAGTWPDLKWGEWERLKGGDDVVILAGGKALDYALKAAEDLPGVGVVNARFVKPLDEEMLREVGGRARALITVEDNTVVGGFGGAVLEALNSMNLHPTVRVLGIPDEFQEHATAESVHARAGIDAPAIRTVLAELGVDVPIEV", "assay": "Binding affinity to Deinococcus radiodurans DXS"}, "[7]": {"target": "T2, 1-deoxy-D-xylulose-5-phosphate synthase (Mycobacterium tuberculosis, UniProt P9WNS3)", "T2 sequence (P9WNS3 whole entry)": "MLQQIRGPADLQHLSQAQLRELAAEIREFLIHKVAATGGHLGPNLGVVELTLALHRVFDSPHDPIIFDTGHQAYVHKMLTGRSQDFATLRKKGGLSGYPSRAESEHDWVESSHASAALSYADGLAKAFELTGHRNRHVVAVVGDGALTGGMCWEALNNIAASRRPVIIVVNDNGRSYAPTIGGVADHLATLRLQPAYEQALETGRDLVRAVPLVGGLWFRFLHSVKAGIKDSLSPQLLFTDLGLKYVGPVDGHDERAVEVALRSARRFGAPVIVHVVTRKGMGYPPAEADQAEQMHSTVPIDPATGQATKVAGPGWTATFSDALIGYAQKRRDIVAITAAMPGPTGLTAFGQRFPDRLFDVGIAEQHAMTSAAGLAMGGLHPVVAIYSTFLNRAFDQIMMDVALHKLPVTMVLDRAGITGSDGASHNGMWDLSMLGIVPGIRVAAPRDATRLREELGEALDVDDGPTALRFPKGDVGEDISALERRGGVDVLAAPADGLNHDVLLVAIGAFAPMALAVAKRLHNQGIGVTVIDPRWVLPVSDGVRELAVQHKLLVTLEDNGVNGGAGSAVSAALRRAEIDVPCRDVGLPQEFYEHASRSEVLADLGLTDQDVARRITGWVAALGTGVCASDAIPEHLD", "assay": "Binding affinity to Mycobacterium tuberculosis DXS"}, "[8]": {"assay": "Inhibition of Plasmodium falciparum NF54 IspE"}, "[9]": {"target": "T3, 1-deoxy-D-xylulose-5-phosphate synthase (Escherichia coli O127:H6 (strain E2348/69 / EPEC), UniProt B7UJP3)", "T3 sequence (B7UJP3 whole entry)": "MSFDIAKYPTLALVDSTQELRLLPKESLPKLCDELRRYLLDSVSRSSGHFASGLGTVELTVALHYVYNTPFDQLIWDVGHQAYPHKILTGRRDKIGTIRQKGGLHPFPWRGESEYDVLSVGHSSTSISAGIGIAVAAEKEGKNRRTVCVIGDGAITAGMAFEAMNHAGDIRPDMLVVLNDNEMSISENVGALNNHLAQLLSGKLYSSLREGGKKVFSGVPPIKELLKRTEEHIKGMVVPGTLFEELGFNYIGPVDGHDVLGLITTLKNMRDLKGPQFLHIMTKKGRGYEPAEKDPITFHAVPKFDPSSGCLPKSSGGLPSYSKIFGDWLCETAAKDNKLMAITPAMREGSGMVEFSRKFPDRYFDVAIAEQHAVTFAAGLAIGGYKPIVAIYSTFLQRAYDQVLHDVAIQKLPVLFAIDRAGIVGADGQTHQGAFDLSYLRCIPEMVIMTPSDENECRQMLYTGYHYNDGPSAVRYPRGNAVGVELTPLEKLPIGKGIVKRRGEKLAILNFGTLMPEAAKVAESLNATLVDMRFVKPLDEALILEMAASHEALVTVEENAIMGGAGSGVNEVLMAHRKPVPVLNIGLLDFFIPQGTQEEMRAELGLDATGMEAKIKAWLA", "assay": "Inhibition of Escherichia coli DXS"}, "[10]": {"target": "T2, 1-deoxy-D-xylulose-5-phosphate synthase", "assay": "Inhibition of Mycobacterium tuberculosis DXS"}, "[11]": {"assay": "Inhibition of Yersinia pestis DXS"}, "[12]": {"assay": "Inhibition of Salmonella enteric DXS", "parameters": "species or system Salmonella enterica"}, "[13]": {"assay": "Inhibition of Mycobacterium smegmatis IspD", "parameters": "species or system Mycolicibacterium smegmatis"}, "[14]": {"assay": "Inhibition of Chlamydomonas DXS"}, "[15]": {"target": "T4, 1-deoxy-D-xylulose-5-phosphate synthase (Haemophilus influenzae (strain 86-028NP), UniProt Q4QKG6)", "T4 sequence (Q4QKG6 whole entry)": "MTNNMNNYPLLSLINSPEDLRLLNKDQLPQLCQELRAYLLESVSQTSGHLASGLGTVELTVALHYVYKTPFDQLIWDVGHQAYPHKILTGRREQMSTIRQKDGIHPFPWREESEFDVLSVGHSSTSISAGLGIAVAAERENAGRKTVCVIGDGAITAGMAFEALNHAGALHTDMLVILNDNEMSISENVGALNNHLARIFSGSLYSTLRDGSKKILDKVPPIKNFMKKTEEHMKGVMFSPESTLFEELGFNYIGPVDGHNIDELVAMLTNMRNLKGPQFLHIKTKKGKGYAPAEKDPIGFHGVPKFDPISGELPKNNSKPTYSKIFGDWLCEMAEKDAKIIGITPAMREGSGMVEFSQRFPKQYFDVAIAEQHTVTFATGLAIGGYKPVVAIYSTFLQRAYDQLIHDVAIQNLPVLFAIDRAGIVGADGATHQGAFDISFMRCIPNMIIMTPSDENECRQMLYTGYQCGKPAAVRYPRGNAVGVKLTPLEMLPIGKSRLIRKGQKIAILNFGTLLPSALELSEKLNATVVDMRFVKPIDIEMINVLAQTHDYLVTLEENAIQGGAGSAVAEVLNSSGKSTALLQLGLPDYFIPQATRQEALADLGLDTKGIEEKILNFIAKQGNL", "assay": "Inhibition of Haemophilus influenzae DXS"}, "Haemophilus influenzae": {"test_system": "Haemophilus influenzae", "assay": "Antimicrobial activity against Haemophilus influenzae", "type": "functional"}, "[16]": {"target": "T1, 1-deoxy-D-xylulose-5-phosphate synthase", "assay": "Inhibition of Deinococcus radiodurans DXS"}, "Aquifex aeolicus": {"test_system": "Aquifex aeolicus", "assay": "Inhibition of Aquifex aeolicus IspH assessed as residual activity at 1 mM"}, "[17]": {"assay": "Inhibition of Plasmodium falciparum Dxr"}, "[18]": {"assay": "Inhibition of Plasmodium falciparum IspF"}, "[19]": {"assay": "Inhibition of Mycobacterium tuberculosis IspF"}}, "note": "pIC50, pKd, pKi: −log10 of the molar value."}
{"smiles": "Oc1c(Cc2ccccc2)c(Cl)cc2ncnn12", "values": [{"measurement": "pIC50", "setting": "[1]", "value": 6.85}]}
{"smiles": "COC(c1cn(CC#Cc2cn(C3CCCS3)c(=O)nc2N)c(C2CCCCC2)n1)C(F)(F)F", "note": "(stereo not drawn)", "values": [{"measurement": "pIC50", "setting": "[2]", "value": 5.00}]}
{"smiles": "O=P(O)(O)OP(=O)(O)OCc1cccnc1", "values": [{"measurement": "pIC50", "setting": "[3]", "value": 4.42}]}
{"smiles": "C[C@@](CO)(OP(=O)(O)O)[C@H](O)COP(=O)(O)CP(=O)(O)OC[C@H]1O[C@@H](n2ccc(N)nc2=O)[C@H](O)[C@@H]1O", "values": [{"measurement": "inhibition", "setting": "Escherichia coli [4]", "value": 0, "unit": "%"}, {"measurement": "inhibition", "setting": "Escherichia coli [5]", "value": 37, "unit": "%"}]}
{"smiles": "Cc1ncc(C[n+]2csc(CCO[P@](=O)(O)OP(=O)(O)O)c2C)c(N)n1", "values": [{"measurement": "pKd", "setting": "[6]", "value": 6.94}, {"measurement": "pKd", "setting": "[7]", "value": 5.51}]}
{"smiles": "C#CCCOP(=O)(O)OP(=O)(O)O", "note": "[BUT-3-YNYL DIPHOSPHATE]", "values": [{"measurement": "pIC50", "setting": "[3]", "value": 6.35}]}
{"smiles": "NC1=N/C(=N\\NC(=O)c2ccccn2)c2ccc3ccccc3c21", "values": [{"measurement": "pIC50", "setting": "[8]", "value": 7.24}]}
{"smiles": "CCCCOP(=O)(O)C(C)=O", "values": [{"measurement": "pKi", "setting": "[9]", "value": 5.25}, {"measurement": "pKi", "setting": "[10]", "value": 5.40}, {"measurement": "pKi", "setting": "[11]", "value": 5.12}, {"measurement": "pKi", "setting": "[12]", "value": 5.08}]}
{"smiles": "Nc1nc(=O)n(C2CCCS2)cc1C#CCNS(=O)(=O)C1CC1", "note": "(stereo not drawn)", "values": [{"measurement": "pIC50", "setting": "[2]", "value": 5.77}]}
{"smiles": "CCCCCCCCCCCC[N+](C)(C)CCOc1ccccc1.[Br-]", "note": "[DOMIPHEN BROMIDE]", "values": [{"measurement": "IC50", "setting": "[13]", "value": 33, "unit": "µg/mL"}]}
{"smiles": "CC1(C)C(=O)ON(Cc2ccccc2Cl)C1=O", "note": "[KETOCLOMAZONE]", "values": [{"measurement": "pIC50", "setting": "[14]", "value": 4.00}, {"measurement": "pKi", "setting": "[15]", "value": 4.63}, {"measurement": "MIC", "setting": "Haemophilus influenzae", "value": 12.5, "unit": "µg/mL"}]}
{"smiles": "O=c1c2ccccc2nc(-c2cccnc2)n1-c1ccc(Br)cn1", "values": [{"measurement": "pIC50", "setting": "[2]", "value": 5.52}]}
{"smiles": "Cc1ncc(Cc2csc(CCO)c2C)c(N)n1", "note": "[3-DEAZATHIAMINE]", "values": [{"measurement": "pIC50", "setting": "[16]", "value": 3.37}]}
{"smiles": "C/C(=C/COC(=O)Nc1ccc(C)cc1)CO", "values": [{"measurement": "Activity", "setting": "Aquifex aeolicus", "value": 62, "unit": "%"}]}
{"smiles": "Cc1[nH]c2ccccc2c1C(Nc1ccccn1)c1ccccc1O", "note": "(stereo not drawn)", "values": [{"measurement": "pIC50", "setting": "[2]", "value": 4.72}]}
{"smiles": "CC(C)(C(=O)O)C(=O)N(O)Cc1ccccc1Cl", "values": [{"measurement": "pIC50", "setting": "[15]", "value": 6.00}]}
{"smiles": "O=P(O)(O)OP(=O)(O)OCCc1cccnc1", "note": "[PYRIDIN-3-YL-ETHYL-DIPHOSPHATE]", "values": [{"measurement": "pIC50", "setting": "[3]", "value": 5.04}]}
{"smiles": "CN(O)C(=O)CCC(c1ccccc1)P(=O)(O)O", "note": "(stereo not drawn)", "values": [{"measurement": "pIC50", "setting": "[17]", "value": 8.51}]}
{"smiles": "COc1cc(C#Cc2ccc(C#CCOc3cccnc3)cn2)nc(N)n1", "values": [{"measurement": "pIC50", "setting": "[2]", "value": 5.06}]}
{"smiles": "CCOC(=O)C1=C(C)N=c2s/c(=C\\c3cc(Br)c(O)c(Br)c3)c(=O)n2C1C1CCCS1", "note": "(stereo not drawn)", "values": [{"measurement": "pIC50", "setting": "[18]", "value": 5.02}, {"measurement": "pIC50", "setting": "[19]", "value": 5.21}]}
